Reference: patent US9238005B2, “Dry powder formulations and methods for treating pulmonary diseases” (Pulmatrix Operating Company, Inc., priority 2009, dated 2016)

Columns and labels:
[1] = Dispersibility from passive dry powder inhalers (CEPM, Dv50, FPF vs inhalation energy); assay type: physicochemical; details: for average CEPM, share of capsule fill weight: 9.2 Joules (60 L/min for 2 L); for average Dv50: 9.2 Joules; for Dv50: measured lower energies
Experimental: The dispersibility of various powder formulations was investigated by measuring the geometric particle size and the percentage of powder emitted from capsules when inhaling on dry powder inhalers with flow rates representative of patient use. The particle size distribution and weight change of the filled capsules were measured for multiple powder formulations as a function of flow rate, inhaled volume and fill weight in 2 passive dry powder inhalers.
In order to relate the dispersion of powder at different flow rates, volumes, and from inhalers of different resistances, the energy required to perform the inhalation maneuver was calculated and the particle size and dose emission data plotted against the inhalation energy. Inhalation energy was calculated as E=R^2Q^2V where E is the inhalation energy in Joules, R is the inhaler resistance in kPa^1/2/LPM, Q is the steady flow rate in L/min and V is the inhaled air volume in L.

[2] = Volume median geometric diameter (x50/VMGD) and GSD by laser diffraction, HELOS/RODOS; assay type: physicochemical
Experimental: Volume median diameter (×50), which may also be referred to as volume median geometric diameter (VMGD), was determined using a laser diffraction technique. […] The RODOS disperser applies a shear force to a sample of particles, controlled by the regulator pressure (typically set at 1.0 bar with orifice ring pressure set at 7 mbar) of the incoming compressed dry air. […] The dispersed particles travel through a laser beam where the resulting diffracted light pattern produced is collected, typically using an R2 lens, by a series of detectors.

[3] = Fine particle fraction, two-stage collapsed Andersen Cascade Impactor (ACI-2); details: spray dried from 70% ethanol, 50 g/L
[4] = Heat of solution in HBSS buffer; assay type: physicochemical; details: Avg.; for ΔH (kJ/mol) / ΔH (kcal/mol): HBSS buffer, per mol Ca, leucine per mol Leu; for Q / ΔT (deg. C): dissolution in HBSS buffer
[5] = high resistance RS-01, 25 mg fill weight
[6] = high resistance RS-01, 40 mg fill weight
[7] = RS.01.HR, fill 25 mg, 15 LPM, 4 s, 0.29 J
[8] = RS.01.HR, fill 25 mg, 20 LPM, 3 s, 0.51 J
[9] = RS.01.HR, fill 25 mg, 30 LPM, 2 s, 1.15 J
[10] = RS.01.HR, fill 25 mg, 60 LPM, 2 s, 9.18 J
[11] = RS.01.HR, fill 40 mg, 15 LPM, 4 s, 0.29 J
[12] = RS.01.HR, fill 40 mg, 20 LPM, 3 s, 0.51 J
[13] = RS.01.HR, fill 40 mg, 30 LPM, 2 s, 1.15 J
[14] = RS.01.HR, fill 40 mg, 60 LPM, 2 s, 9.18 J
[15] = RS.01.LR, fill 25 mg, 60 LPM, 2 s, 2.85 J
[16] = RS.01.LR, fill 40 mg, 60 LPM, 2 s, 2.85 J
[17] = all measured lower energies (<9.2 Joules), 25 and 40 mg fill weights

With “albuterol sulfate [Micronized Albuterol 073-001-02-039A]” the “average CEPM, share of capsule fill weight” value [1, 5] was 93%, the “average CEPM, share of capsule fill weight” value [1, 6] was 84% and the “average Dv50” value [1, 5] was 1.8 μm. The “average Dv50” value [1, 6] was 1.6 μm, the “Mean CEPM” value [1, 7] was 3.12 mg and the “Mean Dv50” value [1, 7] was 16.76 μm. For the same compound, the “Mean FPF, % < 5 μm” value [1, 7] was 13.00%, the “Mean CEPM” value [1, 8] was 5.00 mg and the “Mean Dv50” value [1, 8] was 8.40 μm. For the same compound, the “Mean FPF, % < 5 μm” value [1, 8] was 32.10%, the “Mean CEPM” value [1, 9] was 7.08 mg and the “Mean Dv50” value [1, 9] was 3.86 μm. The “Mean FPF, % < 5 μm” value [1, 9] was 59.44%, the “Mean CEPM” value [1, 10] was 23.18 mg and the “Mean Dv50” value [1, 10] was 1.77 μm. The “Mean FPF, % < 5 μm” value [1, 10] was 81.65%, the “Mean CEPM” value [1, 11] was 2.43 mg and the “Mean Dv50” value [1, 11] was 17.63 μm. For the same compound, the “Mean FPF, % < 5 μm” value [1, 11] was 10.73%, the “Mean CEPM” value [1, 12] was 4.97 mg and the “Mean Dv50” value [1, 12] was 6.34 μm. The “Mean FPF, % < 5 μm” value [1, 12] was 42.24%, the “Mean CEPM” value [1, 13] was 8.55 mg and the “Mean Dv50” value [1, 13] was 3.13 μm. The “Mean FPF, % < 5 μm” value [1, 13] was 67.18%, the “Mean CEPM” value [1, 14] was 33.40 mg and the “Mean Dv50” value [1, 14] was 1.60 μm. The “Mean FPF, % < 5 μm” value [1, 14] was 84.30%, the “Mean CEPM” value [1, 15] was 15.28 mg and the “Mean Dv50” value [1, 15] was 2.57 μm. For the same compound, the “Mean FPF, % < 5 μm” value [1, 15] was 75.01%, the “Mean CEPM” value [1, 16] was 18.88 mg and the “Mean Dv50” value [1, 16] was 2.62 μm. For the same compound, the “Mean FPF, % < 5 μm” value [1, 16] was 73.98%, the CEPM [1, 17] was “below 10 mg” and the “CEPM, share of capsule fill weight” value [1, 17] was under 30%. It also gave a Dv50 ([1]; 25 mg fill weight) of 3.9 μm and a Dv50 ([1]; 40 mg fill weight) of 3.1 μm.
In the case of `[Cl-].[Cl-].[Mg+2]` [Pure magnesium chloride, magnesium chloride], the “median volume particle size” value ([2]; spray dried from 70% ethanol, 50 g/L) is reported as 4 microns, the “median particle size (HELOS/RODOS)” value ([2]; spray dried from D.I. water, 20 g/L) is reported as 21 microns and the “fine particle fraction less than 5.6 microns” value [3] is reported as 19%.
With `CC(C)C[C@H](N)C(=O)O` [Leucine] the “ΔH (kJ/mol)” value [4] was -6 kJ/mol, the “ΔH (kcal/mol)” value [4] was -1.5 kcal/mol and the “Q” value [4] was 0.37 cal. For the same compound, the “ΔT (deg. C)” value [4] was 0.003 deg. C.
For `O.O.[Ca+2].[Cl-].[Cl-]` [CaCl2.2H2O], the “ΔH (kJ/mol)” value [4] was -50.6 kJ/mol, the “ΔH (kcal/mol)” value [4] was -12.1 kcal/mol and the “Q” value [4] was 2.93 cal. For the same compound, the “ΔT (deg. C)” value [4] was 0.024 deg. C.
